Results from patent publication US7220822B2, “CD28 mimetics for blocking T cell mediated immune reactions” (The Ohio State University, priority 2000, dated 2007).
Square brackets hold non-standard residues; d marks the D form. Peptide text beside a SMILES is read from it.

Tests used:
CD80-Ig = molecular target: T1, CD80-Ig (Homo sapiens, UniProt P33681); assay: Direct kinetic analysis of CD28 peptide binding to immobilized CD80-Ig by surface plasmon resonance (BIACORE)
T1 construct: extracellular domain of CD80 fused with the constant region of mouse IgG1 heavy chain
Method: Binding experiments were performed by surface plasmon resonance (SPR) on an instrument sold under the trademark BIACORE™ from Pharmacia Biosensor (Uppasala, Sweden).
CD80-Ig (extracellular domain of CD80 fused with the constant region of mouse IgG1 heavy chain) at 35 μg/ml in 10 mM sodium acetate buffer, pH 4.2, was coupled to a research grade CM 5 sensor chip using a standard amine coupling procedure with the following modifications (38). To reduce the immobilization level of the ligand, the surface was activated for 3 (instead of 7) minutes with N-hydroxysuccinamide and […]. […] Following coupling, noncovalently bound ligand was removed by washing twice with 5 mM NaOH.
The analytes were also injected at the same concentration and injection times over an empty flow cell with nothing immobilized.
Data analysis was performed with BIAEVALUATION™ software version 2.1(Pharmacia Biosensor AB). […] Prior to kinetic analysis, data were adjusted to zero baseline level by subtracting the background responses obtained by injection of the analytes through a control flow cell with no ligand immobilized. First, the dissociation rate constant, kd, (units: s^−1) was determined, by fitting experimental data from the buffer flow part of the sensogram to the equation R(t)=R1*e^−kd*(t^0^−t^1^) (1) where t0 is the injection time, R1 is the response level at the start of dissociation time t1 and kd is the dissociation rate constant.
The kd value obtained was used as a constant during the analysis of the injection phase data. Binding data above the noise level was selected by converting the sensogram to a plot of the logarithm of the binding rate vs time (dR/dt vs. time). The ka was determined by nonlinear curve fitting of the following equation R(t)=Req*{1−e^−(k^a^*C+k^d^)*(t) (2) where R(t) is the response at time t, Req is the steady state response level, ka is the association rate constant (units: M^−1s^−1), kd is the dissociation rate constant and C is the concentration of the injected peptide analyte. An offset was added to account for the refractive index differences between the analyte and the running buffer.
After analyzing sensograms obtained from injections of increasing concentrations of peptide analytes or CD28-Ig, the experimental data was analyzed using the BIAsimulation software 2.1. A plot of the logarithm of (dR/dt) against time was calculated from the sensograms, and then the slopes at different concentrations were plotted against the concentrations of the peptide analyte. Different angles obtained of the linear lines represent the variation of affinities, which gives the association rate constant (ka) from the equation ln dR/dt=ln(kaCR max)−KaC+kd)t (4) where dR/dt is the rate of change of the SPR signal, C is the concentration of the analyte, Rmax is the maximum analyte binding capacity in RU and R is the SPR signal in RU at time t. The dissociation rate constant is obtained from the equation Kd=kd/ka (5)

[1] = system: CD4+ LNC from Vα4/Vβ8.2 TCR transgenic mice; assay type: cell-based, mouse; conditions: CD4+ LNC and spleen cells, NAc 1-11 10 μg/ml, all concentrations used
Method: The in vitro effect of varying concentration of the CD 28 peptide mimetics on CD4+ lymph node cells and spleen cells from transgenic mice bearing the Vα 4 Vβ8.2 TCR specific for MBP Ac 1-11 was determined.
CD4+ T cells were purified from pooled peripheral lymph nodes (inguinal, axillary, brachial, cervical, popliteal), and mesenteric lymph nodes and spleen of 6–8 wk old Vα4/Vβ8.2 TCR transgenic mice by positive selection. Single cell suspensions were prepared by lympholyte M gradient, washed, counted and incubated with magnetic bead conjugated anti-mouse CD4 (L3T4) (Miltenyi Biotech Corporation) followed by positive selection using magnetic selection columns. Purity of the CD4^+ cells was greater than 90% as assessed by staining with FITC labeled anti-mouseVβ8.2 mAb (Pharmingen). During the selection process, T cells maintain a naïve phenotype with no evidence for T cell activation as measured by proliferation in culture. Purified CD4+ T-cells (5×10^4 cells/well) were cultured together with wild type splenocytes from B10.PL mice as APC's (10^5 cells/well) in RPMI 1640 containing 10% FCS, 25 mM HEPES, 2 mM L-glutamine, 50 U/ml penicillin, 50 μg/ml streptomycin, and 5×10–5 M 2-ME in round-bottom 96-well plates and MBP (40 μg/ml) or MBP NAc1-11 (10 μg/ml) or media only in the presence or absence of synthetic CD28 peptide analogues at different concentrations in triplicate wells for 72 h, including a final 18-h pulse with [^3H] thymidine. Cultures were harvested onto glass-fiber mats using a Skatron harvester (Skatron, Sterling, Va.) and were counted by liquid scintillation on LKB Betaplate (LKB, Rockville, Md.). The means of the triplicate were determined and the results are expressed as delta cpm (mean counts per minute of cultures with Ag-mean counts per minute of cultures with medium alone)±SD.

B10.PL mice with EAE = assay: EAE in B10.PL mice immunized with GP-MBP in CFA, clinical score; assay type: in vivo, mouse; conditions: for mean maximal clinical score: single i.v. 500 μg on day 14 post-immunization (established EAE); for maximum disease incidence / maximum mean cumulative score per day: single i.v. 500 μg on the day of immunization
Method: Female B10.PL mice (6–8 wk old) were obtained from The Jackson laboratory (Bar Harbor, Me.) and housed at the Ohio State University, (Columbus, Ohio).
Mice were injected subcutaneously over four sites on the flank with an emulsion containing 200 μg of guinea-pig-MBP in CFA containing 200 μg heat killed Mycobacterium tuberculosis, Jamaica strain. Pertussis toxin (List Biological, Campbell, Calif.) at 150 ng in 0.2 ml of PBS was given intraperitoneally at the time of immunization and 48 hours later. Animals were observed daily for clinical signs and scored as follows: 1, limp tail or waddling gait with tail tonicity; 2, waddling gait with limp tail (ataxia); 2.5 ataxia with partial paralysis of one limb, 3, partial hind-limb paralysis, 3.5 full paralysis of one limb with partial paralysis of the second limb, 4, full paralysis of two limbs, 4.5 moribund and 5, death. All mice immunized with MBP (200 μg) in CFA developed clinical disease varying between ataxia and complete hind limb paralysis by day 14 post-immunization. They were then distributed randomly into six groups with mean clinical score of each group approximately the same.
Groups of mice were left untreated or injected intravenously with 500 μg of EL CD28 or RI CD28 peptide mimetics, or LCD28, RLCD28 and DCD28 peptides. The mean clinical score of untreated mice continued to increase reaching a maximum of 3.4 on day 20. Similarly the disease continued to progress in mice treated with LCD28, RLCD28 and DCD28, reaching mean maximal clinical score of 3.8 (day 18), 3.4 (day 16 ) and 3.7 (day 16) respectively.
The biological activity of synthetic CD28 peptide analogues during antigen priming in vivo in EAE was then shown. B10.PL mice immunized with GP-MBP (200 μg) in CFA were either left untreated or injected intravenously 500 μg of EL CD28 or RI CD28 peptide mimetics or LCD28, RLCD28 and DCD28 peptides on the day of immunization. The vehicle treated mice and mice treated with: LCD28, RL CD28 and D CD28 peptide had maximum disease incidence of 100%, 100%, 91.5% and 91.5% and maximum mean cumulative score per day of 1.9, 1.8, 1.7 and 2 respectively. […] The effect of RI CD28 peptide injection lasted for the duration of observation (37 days) in one experiment.

[2] = system: lymph node cells of MBP-primed mice; assay: IL-2 ELISPOT of draining lymph node cells from peptide-treated MBP-immunized mice; assay type: in vivo, mouse; conditions: mice treated on day 0 of immunization, ELISPOT on restimulation
Method: Ninety-six well unifilter plates (Polyfiltronics, Rockland, Md.) were coated overnight at 4° C. with rat anti-mouse IL-2 (Clone JES6-1A12) (Pharmingen, Calif.) at 4 μg/ml. The plates were then washed 4× with sterile PBS and blocked with 1% BSA in DMEM for 2 h at room temperature. Subsequently, isolated single cell suspensions of CD4+ LNC (5×10^6 cells/ml) and splenocytes (10×10^6 cells/ml) were added with the antigens and CD28 peptides under the conditions as specified for the proliferation assays. After 24 h of culture in the incubator, the cells were removed by washing 3× with PBS and 4× with PBS containing Tween (1:2000) (PBST). Then biotinylated anti mouse-IL-2 (Clone JES6-5H4) (Pharmingen, Calif.) 2 μg/ml was added and incubated at 4° C. overnight. After washing 3× with PBST and 3× with PBS, goat anti-biotin antibody conjugated to alkaline phosphatase (Vector Laboratories Inc, Burlingame, Calif.) diluted to 1:1000 in PBST containing 1% BSA was added and incubated for 2 h at room temperature. The spots were visualized by adding BCIP/NBT phosphatase substrate (Kirkeguard & Perry Laboratories, Gaithesburg, Md.). Image analysis of ELISA spot assays was performed on a Series 1 Immunospot Image Analyzer (Autoimmun Diagnostika (US) Inc.) customized for analyzing ELISA spots to meet objective criteria for size, chromatic density, shape and color.
MBP reactive T cells that induce EAE are known to display a Th1 phenotype secreting the proinflammatory cytokines IL-2, […] and TNF-β (36. Kay, B. K., M. P. Williamson, and M. Sudol. 2000. Faseb J 14, no. 2:231). ELISPOT assay was used to assess in vitro cytokine production by draining lymph node cells and splenocytes upon restimulation from in vivo MBP-primed T cells. Mice were treated as described in Example 3, on day 0 of immunization.

T1 sequence (P33681 35-242 limits assumed, other chains not shown): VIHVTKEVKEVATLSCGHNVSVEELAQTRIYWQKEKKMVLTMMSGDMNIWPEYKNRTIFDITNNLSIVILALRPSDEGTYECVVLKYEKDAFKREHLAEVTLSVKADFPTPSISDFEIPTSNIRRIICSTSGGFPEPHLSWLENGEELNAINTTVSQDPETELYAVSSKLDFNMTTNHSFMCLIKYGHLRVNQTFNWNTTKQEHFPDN

Molecule	maximum response units obtained for binding to CD80-Ig (CD80-Ig; SPR direct binding) [RU]	proliferative response / inhibition of T cell proliferation (in words) [1]	mean maximal clinical score (B10.PL mice with EAE)	maximum disease incidence (B10.PL mice with EAE) [%]	maximum mean cumulative score per day (B10.PL mice with EAE)	frequency of IL-2 secreting lymph node cells [2]	binding to CD80-Ig (in words) (CD80-Ig; data not shown)
CC[C@H](C)[C@H](NC(=O)[C@@H](NC(=O)CNC(=O)[C@H](CC(N)=O)NC(=O)[C@H](CO)NC(=O)[C@H](CCCNC(=N)N)NC(=O)[C@H](CCC(=O)O)NC(=O)[C@H](CC(N)=O)NC(=O)[C@H](CC(=O)O)NC(=O)[C@H](CC(C)C)NC(=O)[C@H](Cc1ccc(O)cc1)NC(=O)[C@@H]1CCCN1C(=O)[C@@H]1CCCN1C(=O)[C@@H]1CCCN1C(=O)[C@H](Cc1ccc(O)cc1)NC(=O)[C@H](CCSC)NC(=O)[C@H](Cc1ccccc1)NC(=O)[C@H](CCC(=O)O)NC(=O)[C@@H](NC(=O)[C@@H](N)CCCCN)[C@@H](C)CC)[C@@H](C)O)C(=O)O [L CD28, NH2KIEFMYPPPYLDNERSNGTICOOH] (H-KIEFMYPPPYLDNERSNGTI-OH)	478	significantly less	3.8	100	1.8		
CH3COD[KIEFMYPPPYLDNERSNGTI]DCONH2 (Ac-[dK][dI][dE][dF][dM][dY][dP][dP][dP][dY][dL][dD][dN][dE][dR][dS][dN]G[dT][dI]-NH2) [D CD28, D-peptide (Control), reference compound]		did not show inhibition	3.7	91.5	2	2675+/−14.2	
CH3COL[ITGNSRENDLYPPPYMFEIK]LCONH2 (Ac-ITGNSRENDLYPPPYMFEIK-NH2) [RL CD28, Reverse-L-peptide (Control), reference compound]		did not show inhibition	3.4	91.5	1.7	3386+/−23.3	
MYPPPY (listed as Homo sapiens) [hexapeptide, reference compound]		did not show inhibition					did not bind
